Type in all cases: cell-based
The target of test [1] is T1, GLUT3 (Homo sapiens, UniProt P11169).
T1 construct: endogenous in cells; host or cells: DLD1 GLUT1−/− (knock-out) cancer cells
T1 sequence (P11169 1-496): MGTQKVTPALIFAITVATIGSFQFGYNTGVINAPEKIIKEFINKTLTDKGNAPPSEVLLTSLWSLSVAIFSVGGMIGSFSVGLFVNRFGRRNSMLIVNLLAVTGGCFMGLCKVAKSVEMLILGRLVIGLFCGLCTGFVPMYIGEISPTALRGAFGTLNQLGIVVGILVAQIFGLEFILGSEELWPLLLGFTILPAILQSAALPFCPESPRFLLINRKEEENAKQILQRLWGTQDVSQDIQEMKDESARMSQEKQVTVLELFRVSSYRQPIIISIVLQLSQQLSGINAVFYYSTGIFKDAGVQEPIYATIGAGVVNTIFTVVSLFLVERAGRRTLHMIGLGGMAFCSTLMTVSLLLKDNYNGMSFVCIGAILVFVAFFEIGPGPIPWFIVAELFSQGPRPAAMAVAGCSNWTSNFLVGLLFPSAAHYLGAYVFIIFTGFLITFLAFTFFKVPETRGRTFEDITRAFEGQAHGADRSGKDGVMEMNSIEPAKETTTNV
As to the kind of experiment: glycolysis assay in DLD1 GLUT1−/− cells (rely on GLUT3). The settings on record: DLD1-KO (GLUT1−/−) cells; 10 μM oligomycin, one hour. The method, then:
(§1) Cells were treated with GLUT inhibitors plus oligomycin and subsequently ATP levels were determined using Cell Titer Glo. […] FIG. 1B reports the IC50 of glycolysis inhibition for selected compounds.
(§2) Accordingly, we have investigated the use of inhibitors of GLUT transporters against activated pro-inflammatory immune cells, including but not limited to activated human CD4+ T cells. In order to understand what GLUT transporters are required to sustain glycolysis in activated T cells, we first utilized the syngeneic cancer cell lines DLD1 WT and DLD GLUT1−/− that rely on GLUT1 and GLUT3 expression, respectively, for glucose transport. Within this system, we have identified small molecules that simultaneously have the property of inhibiting both GLUT1 and GLUT3 mediated glucose transport. In addition, we have confirmed the GLUT1-selective nature of a published small molecule inhibitor of GLUT1 (Chem Med Chem. 2016 Oct. 19; 11(20):2261-2271).
(§3) Determination of glucose uptake/GLUT activity (glycolysis assay): HT1080 cells, DLD1 cells (WT and GLUT1−/−) and human CD4+ T cells were plated in 96-well plates. Cells were exposed to the combination of 10 μM Oligomycin (to block mitochondrial-derived ATP) and the glucose uptake inhibitors disclosed herein for one-hour, after which glycolytically-derived ATP was measured with the Cell Titer-Glo assay kit (Promega). Dose-response curves of the glucose uptake inhibitors disclosed herein were used to determine the IC50 for GLUT activity.

Test [2] deals with T2, GLUT1 (Homo sapiens, UniProt P11166).
T2 construct: endogenous in cells; host or cells: DLD1 WT cancer cells
T2 sequence (P11166 1-492): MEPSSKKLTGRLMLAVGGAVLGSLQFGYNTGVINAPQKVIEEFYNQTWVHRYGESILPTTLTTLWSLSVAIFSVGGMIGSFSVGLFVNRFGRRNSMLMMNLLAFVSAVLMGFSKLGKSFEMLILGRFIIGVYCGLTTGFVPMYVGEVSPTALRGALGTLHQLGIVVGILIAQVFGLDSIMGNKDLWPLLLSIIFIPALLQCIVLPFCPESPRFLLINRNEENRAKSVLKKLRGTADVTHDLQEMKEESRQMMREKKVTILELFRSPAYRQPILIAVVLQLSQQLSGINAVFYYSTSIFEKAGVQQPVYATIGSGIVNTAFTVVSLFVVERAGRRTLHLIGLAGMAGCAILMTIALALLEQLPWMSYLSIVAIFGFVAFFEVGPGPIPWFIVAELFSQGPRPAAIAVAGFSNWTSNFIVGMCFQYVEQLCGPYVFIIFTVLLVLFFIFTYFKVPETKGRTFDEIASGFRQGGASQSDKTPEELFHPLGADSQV
Briefly: glycolysis assay in DLD1 WT cells (rely on GLUT1). The settings on record: DLD1-WT cells; 10 μM oligomycin, one hour. The method, then: as §1, §2, §3

In test [3] the test system is GLUT. As to the kind of experiment: glycolysis assay (oligomycin + Cell Titer-Glo ATP readout) in HT1080 cells. The following applies: 10 μM oligomycin, one hour, glycolytically-derived ATP.
Excerpt: The combination of inhibitors of both oxidative phosphorylation and glycolysis synergistically suppress cellular ATP levels. Therefore, our assay utilizes the combination of our glucose uptake inhibitors with oligomycin, a well-characterized inhibitor of ATP synthase. Because oligomycin inhibits ATP derived from oxidative phosphorylation, any remaining ATP production is derived from glycolysis. By reading out cellular ATP levels using the Promega
Titer Glo kit, we can assess the extent of glycolysis inhibition by our glucose uptake inhibitors. Using this experimental set-up in HT1080 cancer cells, we determined the IC50 of glycolysis inhibition for the compounds.
as §3
Background: Cellular ATP, detected with luciferase, serves as a proxy for viable cell number.

The term IC50 denotes the midpoint of a concentration-inhibition curve. For the compound `COc1ccc2nc(-c3cccc(OCC(=O)NC(C)C)c3)nc(Nc3ccc(-c4cn[nH]c4)cc3F)c2c1` [Ex. 20, 2-(3-(4-((2-fluoro-4-(1H-pyrazol-4-yl)phenyl)amino)-6-methoxyquinazolin-2-yl)phenoxy)-N-isopropylacetamide], the IC50 in test [1] is 177 nM; in test [2] it was 709 nM; in test [3], 423 nM.

For `CCOc1ccc2nc(-c3cccc(OCC(=O)NC(C)C)c3)nc(Nc3ccc(-c4cn[nH]c4)cc3F)c2c1` [Ex. 21, 2-(3-(6-ethoxy-4-((2-fluoro-4-(1H-pyrazol-4-yl)phenyl)amino)quinazolin-2-yl)phenoxy)-N-isopropylacetamide], the IC50 in test [1] amounted to 248 nM; in test [2], 786 nM; in test [3] it was 408 nM.

Regarding `CCC(C)NC(=O)COc1cccc(-c2nc(Nc3ccc(-c4cn[nH]c4)cc3)c3cc(OC)ccc3n2)c1` (stereo not drawn) [Ex. 22, 2-(3-(4-((4-(1H-pyrazol-4-yl)phenyl)amino)-6-methoxyquinazolin-2-yl)phenoxy)-N-(sec-butyl)acetamide], the IC50 in test [1] was 66.8 nM; in test [2], 105 nM; in test [3], 112 nM.

`COc1ccc2nc(-c3cccc(OCC(=O)NC(CF)CF)c3)nc(Nc3ccc(-c4cn[nH]c4)cc3)c2c1` [Ex. 23, 2-(3-(4-((4-(1H-pyrazol-4-yl)phenyl)amino)-6-methoxyquinazolin-2-yl)phenoxy)-N-(1,3-difluoropropan-2-yl)acetamide]: the IC50 came to 110 nM in test [1], 463 nM in test [2] and 258 nM in test [3].

In the case of `CCOc1ccc2nc(-c3cccc(OCC(=O)NCC(F)(F)F)c3)nc(Nc3ccc(-c4cn[nH]c4)cc3)c2c1` [Ex. 24, 2-(3-(4-((4-(1H-pyrazol-4-yl)phenyl)amino)-6-ethoxyquinazolin-2-yl)phenoxy)-N-(2,2,2-trifluoroethyl)acetamide], the IC50 was determined as 86 nM in test [1], 801 nM in test [2] and 454 nM in test [3].

Turning to `COc1ccc2nc(-c3cccc(OCC(=O)NCC(F)(F)F)c3)nc(Nc3ccc(-c4cn[nH]c4)cc3)c2c1` [Ex. 25, 2-(3-(4-((4-(1H-pyrazol-4-yl)phenyl)amino)-6-methoxyquinazolin-2-yl)phenoxy)-N-(2,2,2-trifluoroethyl)acetamide], the 50% inhibitory concentration (IC50) was 68.4 nM in test [1], 1070 nM in test [2] and 433 nM in test [3].

Turning to `CCOc1ccc2nc(-c3cccc(OCC(=O)NC(C)(C)C)c3)nc(Nc3ccc(-c4cc[nH]n4)cc3)c2c1` [Ex. 27, 2-(3-(4-((4-(1H-Pyrazol-3-yl)phenyl)amino)-6-ethoxyquinazolin-2-yl)phenoxy)-N-(tert-butyl)acetamide], the IC50 in test [1] was 116 nM; in test [2] it was 252 nM; in test [3] it was 310 nM.

For `CCOc1ccc2nc(-c3cccc(OCC(=O)NC(C)C)c3)nc(Nc3ccc(-c4cc[nH]n4)cc3)c2c1` [Ex. 28, 2-(3-(4-((4-(1H-Pyrazol-3-yl)phenyl)amino)-6-ethoxyquinazolin-2-yl)phenoxy)-N-isopropylacetamide], the results for the IC50 in test [1], in test [2] and in test [3] were 105 nM, 496 nM and 545 nM, respectively.

For the compound `CC(C)(C)NC(=O)COc1cccc(-c2nc(Nc3ccc(-c4cn[nH]c4)cc3)c3cc(F)ccc3n2)c1` [Ex. 29, 2-(3-(4-((4-(1H-Pyrazol-4-yl)phenyl)amino)-6-fluoroquinazolin-2-yl)phenoxy)-N-(tert-butyl)acetamide], the results for the IC50 in test [1], in test [2] and in test [3] were 142 nM, 124 nM and 123 nM, respectively.

As to `CC(C)(C)NC(=O)COc1cccc(-c2nc(Nc3ccc(-c4cn[nH]c4)cc3)c3ccc(F)cc3n2)c1` [Ex. 30, 2-(3-(4-((4-(1H-Pyrazol-4-yl)phenyl)amino)-7-fluoroquinazolin-2-yl)phenoxy)-N-(tert-butyl)acetamide], the results for the IC50 in test [1], in test [2] and in test [3] were 195 nM, 624 nM and 425 nM, respectively.

Consider `COCCOc1ccc2nc(-c3cccc(OCC(=O)NC(C)C)c3)nc(Nc3ccc(-c4cn[nH]c4)cc3)c2c1` [Ex. 31, 2-(3-(4-((4-(1H-Pyrazol-4-yl)phenyl)amino)-6-(2-methoxyethoxy)quinazolin-2-yl)phenoxy)-N-isopropylacetamide], for which the IC50 was 59.2 nM in test [1], 62.1 nM in test [2] and 53.5 nM in test [3].

As to `CCCOc1ccc2nc(-c3cccc(OCC(=O)NC(C)C)c3)nc(Nc3ccc(-c4cn[nH]c4)cc3)c2c1` [Ex. 32, 2-(3-(4-((4-(1H-Pyrazol-4-yl)phenyl)amino)-6-propoxyquinazolin-2-yl)phenoxy)-N-isopropylacetamide], the IC50 was 305 nM in test [1], 178 nM in test [2] and 188 nM in test [3].

Turning to `CC(C)NC(=O)COc1cccc(-c2nc(Nc3ccc(-c4cn[nH]c4)cc3)c3cc(F)ccc3n2)c1` [Ex. 33, 2-(3-(4-((4-(1H-pyrazol-4-yl)phenyl)amino)-6-fluoroquinazolin-2-yl)phenoxy)-N-isopropylacetamide], the IC50 is 183 nM in test [1], 802 nM in test [2] and 424 nM in test [3].

As for `CC(C)NC(=O)COc1cccc(-c2nc(Nc3ccc(-c4cn[nH]c4)cc3)c3ccc(F)cc3n2)c1` [Ex. 34, 2-(3-(4-((4-(1H-Pyrazol-4-yl)phenyl)amino)-7-fluoroquinazolin-2-yl)phenoxy)-N-isopropylacetamide], the half-maximal inhibitory concentration (IC50) in test [1] was determined as 197 nM; in test [2], 797 nM; in test [3], 418 nM.

For the compound `CCOc1ccc2nc(-c3cccc(OCC(=O)N[C@@H](C)CC)c3)nc(Nc3ccc(-c4cn[nH]c4)cc3)c2c1` [Ex. 35, (S)-2-(3-(4-((4-(1H-Pyrazol-4-yl)phenyl)amino)-6-ethoxyquinazolin-2-yl)phenoxy)-N-(sec-butyl)acetamide], the IC50 in test [1] worked out at 94.2 nM; in test [2], 130 nM; in test [3] it was 134 nM.

Regarding `CCOc1ccc2nc(-c3cccc(OCC(=O)N[C@H](C)CC)c3)nc(Nc3ccc(-c4cn[nH]c4)cc3)c2c1` [Ex. 36, (R)-2-(3-(4-((4-(1H-Pyrazol-4-yl)phenyl)amino)-6-ethoxyquinazolin-2-yl)phenoxy)-N-(sec-butyl)acetamide], the values for the IC50 in test [1], in test [2] and in test [3] were 130 nM, 116 nM and 137 nM, respectively.

In the case of `CCCOc1ccc2nc(-c3cccc(OCC(=O)NC(C)(C)C)c3)nc(Nc3ccc(-c4cn[nH]c4)cc3)c2c1` [Ex. 37, 2-(3-(4-((4-(1H-Pyrazol-4-yl)phenyl)amino)-6-propoxyquinazolin-2-yl)phenoxy)-N-(tert-butyl)acetamide], the IC50 in test [1] came to 158 nM; in test [2], 89.3 nM; in test [3] it was 128 nM.

Consider `CC(C)(C)NC(=O)COc1cccc(-c2nc(Nc3ccc(-c4cn[nH]c4)cc3)c3cc(OCCF)ccc3n2)c1` [Ex. 38, 2-(3-(4-((4-(1H-Pyrazol-4-yl)phenyl)amino)-6-(2-fluoroethoxy)quinazolin-2-yl)phenoxy)-N-(tert-butyl)acetamide], for which the IC50 in test [1] amounted to 51.5 nM; in test [2] it was 65.7 nM; in test [3], 60.8 nM.

The values are drawn from US11071735B2, “Treatment of inflammatory conditions and autoimmune diseases with glucose uptake inhibitors” (Kadmon Corporation, LLC, priority 2017, dated 2021).
